Target: T1, recombinant human cGAS (aa147-522) (Homo sapiens, UniProt Q8N884)
T1 construct: recombinant human cGAS (aa147-522); His6-SUMO (cleaved yes); made in house; host or cells: E. coli BL21/pLys
Test: In vitro inhibition assay of cGAS activity (ATP consumption, KinaseGlo Max)
Format: biochemical
Conditions: Table 2, read-out: cGAS Inhibition Results IC50
Procedure: Expression and Purification of Recombinant cGAS Protein: cDNA encoding full-length or amino acids […] of human cGAS was inserted into a modified pET28a vector containing an in-frame His6-SUMO tag. The E. coli strain BL21/pLys harboring the plasmid was induced with 0.5 mM IPTG at 18° C. overnight. His6-SUMO tag was removed by a SUMO protease digestion following purification of the His6-SUMO-cGAS as described previously (Sun et al, 2013, Science 339, 786).
In vitro inhibition assay of cGAS activity: A 60 μL mixture containing 20 mM Tris-Cl, pH 7.5, 5 mM MgCl2, 0.2 mg/mL BSA, 0.01 mg/mL Herring testis DNA, 6.6 μM ATP, 0.1 mM GTP, 1.5 μg/mL of recombinant human cGAS (aa147-522) and serial dilutions of a test compound in DMSO was added to a 96-well plate and incubated at 37° C. for 20 minutes. At the end of reaction, 40 μL of KinaseGlo Max (Promega) was added and chemiluminescence was measured with a luminometer. Inhibitory effect of a compound is evaluated by plotting percentage of ATP consumption against logarithm of compound concentrations. IC50 value was calculated using GraphPad Prism 8 (GraphPad Software, Inc.).
The letter codes for cGAS IC50 include: A (<2 μM); B (2-30 μM); C (>30 μM).

T1 sequence (Q8N884 147-522): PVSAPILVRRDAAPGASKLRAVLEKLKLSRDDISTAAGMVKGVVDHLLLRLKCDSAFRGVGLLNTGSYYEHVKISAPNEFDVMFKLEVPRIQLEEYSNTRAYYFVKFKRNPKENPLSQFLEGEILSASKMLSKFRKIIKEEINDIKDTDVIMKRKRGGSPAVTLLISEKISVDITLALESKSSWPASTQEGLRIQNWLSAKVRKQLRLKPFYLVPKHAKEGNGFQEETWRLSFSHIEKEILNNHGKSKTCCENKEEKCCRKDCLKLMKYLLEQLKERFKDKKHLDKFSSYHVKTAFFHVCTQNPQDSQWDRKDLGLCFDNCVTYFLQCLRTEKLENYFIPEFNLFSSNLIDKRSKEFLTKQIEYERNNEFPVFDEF

IC50 [µM]	SMILES
2 to 30	Clc1ccc2c(-n3ccnc3)cc(-c3ccccc3)nc2c1 [I-1]
2 to 30	COc1ccc(-c2cc(-n3ccnc3)c3ccc(Cl)cc3n2)cc1 [I-2, 7-chloro-4-(1H-imidazol-1-yl)-2-(4-methoxyphenyl)quinoline]
> 30	COC(=O)c1ccc(-c2cc(-n3ccnc3)c3ccc(Cl)cc3n2)cc1 [I-3]
2 to 30	O=C(O)c1ccc(-c2cc(-n3ccnc3)c3ccc(Cl)cc3n2)cc1 [I-4]
2 to 30	COC(=O)c1cccc(-c2cc(-n3ccnc3)c3ccc(Cl)cc3n2)c1 [I-5]
< 2	O=C(O)c1cccc(-c2cc(-n3ccnc3)c3ccc(Cl)cc3n2)c1 [I-6, 3-(7-Chloro-4-(1H-imidazol-1-yl)quinolin-2-yl)benzoic acid]
2 to 30	NC(=O)c1cccc(-c2cc(-n3ccnc3)c3ccc(Cl)cc3n2)c1 [I-7, 3-(7-chloro-4-(1H-imidazol-1-yl)quinolin-2-yl)benzamide]
2 to 30	Nc1cccc(-c2cc(-n3ccnc3)c3ccc(Cl)cc3n2)c1 [I-8, 3-(7-chloro-4-(1H-imidazol-1-yl)quinolin-2-yl)aniline]
> 30	O=C(O)Cc1cccc(-c2cc(-n3ccnc3)c3ccc(Cl)cc3n2)c1 [I-9]
2 to 30	CS(=O)(=O)Nc1cccc(-c2cc(-n3ccnc3)c3ccc(Cl)cc3n2)c1 [I-10, N-(3-(7-chloro-4-(1H-imidazol-1-yl)quinolin-2-yl)phenyl)methanesulfonamide]
2 to 30	NC(=O)Nc1cccc(-c2cc(-n3ccnc3)c3ccc(Cl)cc3n2)c1 [I-11, 1-(3-(7-chloro-4-(1H-imidazol-1-yl)quinolin-2-yl)phenyl)urea]
> 30	CCOC(=O)c1ccccc1-c1cc(-n2ccnc2)c2ccc(Cl)cc2n1 [I-12]
> 30	O=C(O)c1ccccc1-c1cc(-n2ccnc2)c2ccc(Cl)cc2n1 [I-13]
> 30	O=C(O)Cc1ccccc1-c1cc(-n2ccnc2)c2ccc(Cl)cc2n1 [I-14]
> 30	O=C(O)c1cc(-c2cc(-n3ccnc3)c3ccc(Cl)cc3n2)ccc1O [I-16, 5-(7-chloro-4-(1H-imidazol-1-yl)quinolin-2-yl)-2-hydroxybenzoic acid]
2 to 30	O=C(O)c1cc(-c2cc(-n3ccnc3)c3ccc(Cl)cc3n2)ccc1F [I-17]
2 to 30	O=C(O)c1cc(-c2cc(-n3ccnc3)c3ccc(Cl)cc3n2)ccc1OC(F)(F)F [I-18]
< 2	CCOc1ccc(-c2cc(-n3ccnc3)c3ccc(Cl)cc3n2)cc1C(=O)O [I-19, 5-(7-chloro-4-(1H-imidazol-1-yl)quinolin-2-yl)-2-ethoxybenzoic acid]
< 2	Nc1ccc(-c2cc(-n3ccnc3)c3ccc(Cl)cc3n2)cc1C(=O)O [I-20]
< 2	O=C(O)c1cc(-c2cc(-n3ccnc3)c3ccc(Cl)cc3n2)ccc1OCCO [I-21, 5-(7-chloro-4-(1H-imidazol-1-yl)quinolin-2-yl)-2-(2-hydroxyethoxy)benzoic acid]
< 2	Nc1cc(C(=O)O)cc(-c2cc(-n3ccnc3)c3ccc(Cl)cc3n2)c1 [I-22, 3-amino-5-(7-chloro-4-(1H-imidazol-1-yl)quinolin-2-yl)benzoic acid]
< 2	O=C(CO)Nc1cc(C(=O)O)cc(-c2cc(-n3ccnc3)c3ccc(Cl)cc3n2)c1 [I-23, 3-(7-chloro-4-(1H-imidazol-1-yl)quinolin-2-yl)-5-(2-hydroxyacetamido)benzoic acid]

IC50 [µM]	SMILES
> 30	CC(C)(C)c1cc(C(=O)O)cc(-c2cc(-n3ccnc3)c3ccc(Cl)cc3n2)c1 [I-25]
< 2	O=C(O)c1cc(O)cc(-c2cc(-n3ccnc3)c3ccc(Cl)cc3n2)c1 [I-26, 3-(7-chloro-4-(1H-imidazol-1-yl)quinolin-2-yl)-5-hydroxybenzoic acid]
> 30	O=C(O)c1cc(Br)cc(-c2cc(-n3ccnc3)c3ccc(Cl)cc3n2)c1 [I-27]
< 2	O=C(O)c1cc(C(=O)O)cc(-c2cc(-n3ccnc3)c3ccc(Cl)cc3n2)c1 [I-28]
< 2	O=C(O)c1cc(OCCO)cc(-c2cc(-n3ccnc3)c3ccc(Cl)cc3n2)c1 [I-29]
2 to 30	COc1ccc(C(=O)O)cc1-c1cc(-n2ccnc2)c2ccc(Cl)cc2n1 [I-30]
> 30	O=C(O)c1ccc(Cl)c(-c2cc(-n3ccnc3)c3ccc(Cl)cc3n2)c1 [I-31]
< 2	O=C(O)c1cncc(-c2cc(-n3ccnc3)c3ccc(Cl)cc3n2)c1 [I-32]
2 to 30	COc1ncc(-c2cc(-n3ccnc3)c3ccc(Cl)cc3n2)cc1C(=O)O [I-33, 5-(7-chloro-4-(1H-imidazol-1-yl)quinolin-2-yl)-2-methoxynicotinic acid]
> 30	COC(=O)c1cncc(-c2cc(-n3ccnc3)c3ccc(Cl)cc3n2)c1 [I-34]
2 to 30	Clc1ccc2c(-n3ccnc3)cc(-c3ccc4nn[nH]c4c3)nc2c1 [I-35]
> 30	O=c1[nH]c2cc(-c3cc(-n4ccnc4)c4ccc(Cl)cc4n3)ccc2o1 [I-36]
> 30	O=C(O)c1cc2c(c(-c3cc(-n4ccnc4)c4ccc(Cl)cc4n3)c1)OCO2 [I-37]
> 30	O=C(O)c1cc2c(c(-c3cc(-n4ccnc4)c4ccc(Cl)cc4n3)c1)OC(F)(F)O2 [I-38]
> 30	COc1ccc(-c2cc(-n3ccnc3)c3ccc(Cl)c(Cl)c3n2)cc1C#N [I-40]
< 2	COc1ccc(-c2cc(-n3ccnc3)c3ccc(Cl)c(Cl)c3n2)cc1O [I-41]
< 2	O=C(O)c1cc(-c2cc(-n3ccnc3)c3ccc(Cl)c(Cl)c3n2)ccc1O [I-42, 5-(7,8-dichloro-4-(1H-imidazol-1-yl)quinolin-2-yl)-2-hydroxybenzoic acid]
< 2	Oc1cccc(-c2cc(-n3ccnc3)c3ccc(Cl)c(Cl)c3n2)c1 [I-43]
> 30	Oc1cc(OC(F)(F)F)cc(-c2cc(-n3ccnc3)c3ccc(Cl)c(Cl)c3n2)c1 [I-44]
2 to 30	COc1c(C(=O)O)cccc1-c1cc(-n2ccnc2)c2ccc(Cl)c(Cl)c2n1 [I-45]
< 2	NS(=O)(=O)c1cccc(-c2cc(-n3ccnc3)c3ccc(Cl)c(Cl)c3n2)c1 [I-46]
< 2	Oc1ccc(-c2cc(-n3ccnc3)c3ccc(Cl)c(Cl)c3n2)cc1 [I-47]

IC50 [µM]	SMILES
< 2	COc1c(Br)ccc2c(-n3ccnc3)cc(-c3cccc(C(=O)O)c3)nc12 [I-48, 3-(7-Bromo-4-(1H-imidazol-1-yl)-8-methoxyquinolin-2-yl)benzoic acid]
> 30	O=C(O)c1cccc(-c2cc(-n3ccnc3)c3ccc(C(F)(F)F)cc3n2)c1 [I-49, 3-(4-(1H-imidazol-1-yl)-7-(trifluoromethyl)quinolin-2-yl)benzoic acid]
< 2	Clc1cc2nc(-c3ccccc3)cc(-n3ccnc3)c2cc1Cl [I-50]
> 30	COc1c(-c2ccccc2)ccc2c(-n3ccnc3)cc(-c3ccccc3)nc12 [I-51]
> 30	Clc1c(-n2ccnc2)cc2c(-n3ccnc3)cc(-c3ccccc3)nc2c1Cl [I-52]
2 to 30	Oc1c(Br)ccc2c(-n3ccnc3)cc(-c3ccccc3)nc12 [I-53, 7-bromo-4-(1H-imidazol-1-yl)-2-phenylquinolin-8-ol]
2 to 30	COc1c(Br)ccc2c(-n3ccnc3)cc(-c3ccccc3)nc12 [I-54, 7-bromo-4-(1H-imidazol-1-yl)-8-methoxy-2-phenylquinoline]
< 2	O=C(O)c1cc(-c2cc(-n3ccnc3)c3ccc(Cl)cc3n2)cs1 [I-55]
2 to 30	O=C(O)c1cc(-c2cc(-n3ccnc3)c3ccc(Cl)cc3n2)c[nH]1 [I-56, 4-(7-chloro-4-(1H-imidazol-1-yl)quinolin-2-yl)-1H-pyrrole-2-carboxylic acid]
2 to 30	O=C(O)c1cc(-c2cc(-n3ccnc3)c3ccc(Cl)cc3n2)cnc1O [I-57, 5-(7-chloro-4-(1H-imidazol-1-yl)quinolin-2-yl)-2-hydroxynicotinic acid]
> 30	Oc1ccc(-c2cc(-n3ccnc3)c3ccc(Cl)cc3n2)cn1 [I-58]
> 30	Oc1cc(-c2cc(-n3ccnc3)c3ccc(Cl)cc3n2)ccn1 [I-59]
> 30	Cc1cn(-c2cc(-c3ccccc3)nc3cc(Cl)ccc23)cn1 [I-60]
> 30	Cc1ncn(-c2cc(-c3ccccc3)nc3cc(Cl)ccc23)c1C [I-61]
> 30	N#Cc1cn(-c2cc(-c3ccccc3)nc3cc(Cl)ccc23)cn1 [I-62]
> 30	OCc1cn(-c2cc(-c3ccccc3)nc3cc(Cl)ccc23)cn1 [I-63]
> 30	N#CCc1cn(-c2cc(-c3ccccc3)nc3cc(Cl)ccc23)cn1 [I-64]
> 30	Clc1ccc2c(-n3cncc3C3CC3)cc(-c3ccccc3)nc2c1 [I-65]
> 30	CC(=O)c1cn(-c2cc(-c3ccccc3)nc3cc(Cl)ccc23)cn1 [I-66]
2 to 30	Clc1ccc2c(-c3cn[nH]c3)cc(-c3ccccc3)nc2c1 [I-67]
> 30	Clc1ccc2c(-c3ccn[nH]3)cc(-c3ccccc3)nc2c1 [I-68]
> 30	Clc1ccc2c(-c3cccnc3)cc(-c3ccccc3)nc2c1 [I-69]

Same assay, conditions: Table 3, read-out: cGAS Inhibition Results IC50

IC50 [µM]	SMILES
< 2	O=C(O)CCOC[C@@H]1[C@@H]2C[C@@H]2CN1c1cc(-n2ccnc2)c2ccc(Cl)c(Cl)c2n1 (stereo in doubt) [I-809]

From patent US11873291B2, “Quinoline cGAS antagonist compounds” (ImmuneSensor Therapeutics, Inc., priority 2020, dated 2024)
